Assay results taken from US5085989A, “Method and reagent for quantitative analysis of 3-oxo-5β-steroid” (Daiichi Pure Chemicals Co., Ltd., priority 1986, dated 1992).
Read-outs that look alike come from different tables or passages of the source.

Assay: Dehydrochoric acid level in serum after intravenous administration (loading test)
Type: in vivo, human (liver cirrhosis patient and healthy subject)
Settings: human, 1000 mg, 1g intravenously; for AUC: read-out: area under concentration curve of the compound in blood (AUC) (converted); for k el: read-out: elimination constant (Kel) (converted)
Experimental: A liver cirrhosis patient and a healthy subject were each intravenously given 1g of dehydrochoric acid. The changes of the dehydrochoric acid level in serum after the administration were determined according to the same procedure as in Example 1 and using the reagent of Example 1. The results are shown in the appended FIG. 1. The elimination constant (keλ), the half-life period (T 1/2) and the area under concentration curve of the compound in blood (AUC) are given in Table 3.

C[C@H](CCC(=O)O)[C@H]1CC[C@H]2[C@@H]3C(=O)C[C@@H]4CC(=O)CC[C@]4(C)[C@H]3CC(=O)[C@]12C [Dehydrochoric Acid, dehydrochoric acid]
AUC (healthy subject): 45400 ng·h/mL
k el (healthy subject): 0.00118 s⁻¹
AUC (liver cirrhosis patient): 23300 ng·h/mL
k el (liver cirrhosis patient): 0.00262 s⁻¹
